# Data from US6291532A, “Use of N-aryl-2-hydroxyalkylamides for stimulating or inducing hair growth and/or arresting hair loss” (L'Oreal, priority 1996, dated 2001).
# Like-named read-outs stand apart in the source and are kept apart here.
# Tests used:
# androgen receptors = target: T1, androgen receptors (Rattus norvegicus, UniProt P15207); experiment: IC50 of the compounds for their effect on the androgen receptors; type: binding; details: for affinity for the androgen receptor (in words): summary in words of the table of Example 1
# T1 construct: from tissue; host or cells: rat ventral prostate cytosol, inferred from the cited method
# T1 sequence (P15207 1-902): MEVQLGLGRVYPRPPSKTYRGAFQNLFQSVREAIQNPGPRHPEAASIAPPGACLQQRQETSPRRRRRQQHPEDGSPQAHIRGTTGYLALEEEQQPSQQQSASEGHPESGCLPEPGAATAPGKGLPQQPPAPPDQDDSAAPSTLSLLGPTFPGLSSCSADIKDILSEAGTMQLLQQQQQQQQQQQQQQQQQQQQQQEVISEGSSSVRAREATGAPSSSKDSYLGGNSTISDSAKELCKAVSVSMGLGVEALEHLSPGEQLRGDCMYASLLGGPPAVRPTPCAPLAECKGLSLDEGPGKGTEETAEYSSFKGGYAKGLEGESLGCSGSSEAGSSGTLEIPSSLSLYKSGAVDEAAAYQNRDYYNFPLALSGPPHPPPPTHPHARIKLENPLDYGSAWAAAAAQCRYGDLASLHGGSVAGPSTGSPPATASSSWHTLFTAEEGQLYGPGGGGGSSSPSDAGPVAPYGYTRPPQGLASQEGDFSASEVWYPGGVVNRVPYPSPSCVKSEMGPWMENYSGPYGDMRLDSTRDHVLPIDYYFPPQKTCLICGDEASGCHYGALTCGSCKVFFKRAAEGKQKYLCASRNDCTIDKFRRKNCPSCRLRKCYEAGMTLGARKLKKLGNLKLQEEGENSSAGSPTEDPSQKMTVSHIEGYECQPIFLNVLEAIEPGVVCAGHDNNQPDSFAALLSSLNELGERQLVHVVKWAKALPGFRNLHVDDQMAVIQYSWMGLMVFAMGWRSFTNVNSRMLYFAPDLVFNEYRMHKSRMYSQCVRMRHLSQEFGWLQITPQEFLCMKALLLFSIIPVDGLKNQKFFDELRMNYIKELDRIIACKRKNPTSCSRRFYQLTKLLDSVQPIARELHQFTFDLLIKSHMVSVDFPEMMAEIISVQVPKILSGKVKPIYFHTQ
# Description: (§1) The IC50 corresponds to the concentration which decreases by 50% either an induced pharmacological mechanism, such as muscular contraction,or the attachment of a molecule to its membrane receptor.
# In order to determine the IC50 of the compounds for their effect on the androgen receptors, they were tested according to the method of Schilling and Liao ("The Prostate", 1984, 5, 581-588).
# (§2) The values are given in μM
# potassium channels = experiment: IC50 of the compounds for their effect on the potassium channels; type: biochemical; details: for IC50: methods of Newgreen et al., Bray et al. and wickerden et al., concentration which decreases by 50% an induced pharmacological mechanism such as muscular contraction, read-out: IC50 K+ Channels; for opening effect for potassium channels (in words): summary in words of the table of Example 1
# Description: as §1
# In order to determine the IC50 of the compounds for their effect on the potassium channels, they were tested according to the methods of Newgreen et al. (Br. J. Pharmacol., 1990, 100, 605-613), Bray et al. (Arch. Pharmacol., 1991, 344, 351-359) and wickerden et al. (Br. J. Pharmacol., 1991, 103, 1148-1152).
# as §2
# [1] = method of Schilling and Liao, concentration which decreases by 50% the attachment of a molecule to its receptor, read-out: IC50 Androgen receptors
IC50 (androgen receptors; [1]) [nM],Compound,IC50 (androgen receptors) [nM],affinity for the androgen receptor (in words) (androgen receptors),IC50 (potassium channels) [nM],opening effect for potassium channels (in words) (potassium channels)
–,"CC(O)(C(=O)Nc1ccc(C#N)c(C(F)(F)F)c1)c1ccccc1 (stereo not shown) [D, N-(4-cyano-3-(trifluoromethyl)phenyl)-2-hydroxy-2-phenylpropionamide]",3000,good affinity,3000,excellent opening effect
1000,"CC(O)(C(=O)Nc1ccc(Cl)c(Cl)c1)C(F)(F)F (stereo not shown) [C, N-(3,4-dichlorophenyl)-3,3,3-trifluoro-2-hydroxy-2-methylpropionamide]",–,good affinity,2000,excellent opening effect
–,"CC(O)(C(=O)Nc1ccc(C#N)c(Cl)c1)C(F)(F)F (stereo not shown) [B, N-(3-chloro-4-cyanophenyl)-3,3,3-trifluoro-2-hydroxy-2-methylpropionamide]",500,good affinity,100,excellent opening effect
–,"CC(O)(C(=O)Nc1ccc(C#N)c(C#N)c1)C(F)(F)F (stereo not shown) [E, N-(3,4-dicyanophenyl)-3,3,3-trifluoro-2-hydroxy-2-methylpropionamide]",10000,good affinity,1000,excellent opening effect
> 10000,"CC(O)(C(=O)Nc1ccc(C#N)cc1)C(F)(F)F (stereo not shown) [G, N-(4-cyanophenyl)-3,3,3-trifluoro-2-hydroxy-2-methylpropionamide, reference compound]",–,poor affinity,10000,poor opening effect
–,"CC(O)(C(=O)Nc1ccc(C#N)c(C(F)(F)F)c1)C(F)(F)F (stereo not shown) [A, N-(4-cyano-3-(trifluoromethyl)phenyl)-3,3,3-trifluoro-2-hydroxy-2-methylpropionamide]",1000,good affinity,500,excellent opening effect

Compound,IC50 (androgen receptors; [1]) [nM],IC50 (androgen receptors) [nM],affinity for the androgen receptor (in words) (androgen receptors),IC50 (potassium channels) [nM],opening effect for potassium channels (in words) (potassium channels)
"CC(O)(C(=O)Nc1ccc([N+](=O)[O-])c(C(F)(F)F)c1)C(F)(F)F (stereo not shown) [F, N-(4-nitro-3-(trifluoromethyl)phenyl)-3,3,3-trifluoro-2-hydroxy-2-methylpropionamide, reference compound]",> 10000,–,poor affinity,> 10000,poor opening effect
